Test results: patent US12115193B2, “Methods of using RARγ agonists for cancer treatment” (Io Therapeutics, Inc., priority 2021, dated 2024)

Columns and labels:
TIL in EMT6 tumors = experiment: Flow cytometry of excised EMT6 tumors (Example 4); format: in vivo, mouse
Text: At the end of the study of Example 3, the tumors were excised, the cells disaggregated and dispersed without use of proteases, stained with various agents, and subjected to flow cytometry. FIG. 5A-B present the results of the flow cytometry both as a percentage of cells and as the number of cells per tumor. […] Of these live cells, a substantial proportion were leukocytes (FIG. 5A, “CD45” panels). […] The majority of the T cells were CD4+(FIG. 5A, “CD4” panels), expected to be predominantly helper cells. Of the CD4^+ cells, only small proportions were T memory cells (expected to be predominantly TH1 memory cells) based on intracellular staining for IFNγ (FIG. 5B, “TH IFGγ” panels), TH17 cells based in intracellular staining for IL-17 (FIG. 5B, “TH IL17” panels), or Treg cell based on staining for CD25 and FoxP3 (FIG. 5B, “Treg” panels). About 25-30% of the T cells were CD8^+ (FIG. 5B, “CD8 T” panels), expected to be predominantly cytotoxic cells.

EMT6 cells = experiment: EMT6 triple negative breast cancer model, various dosages (Example 5); format: in vivo, mouse
Text: The EMT6 triple negative breast cancer model, essentially as described above, was used to assess the effects of increased dosages of GA2E. The mice were orally administered 10 (n=10), 25 (n=10), or 50 (n=11) mg/kg of GA2E, or vehicle control (n=10) daily for 17 days. […] Two mice in the vehicle control group were terminated at Day 12 with tumors >1500 mm^3.

PBMC = experiment: CMV recall antigen-stimulated PBMC: IFNγ production and CFSE proliferation; format: cell-based; conditions: four days, vs vehicle control
Procedure: Peripheral blood mononuclear cells (PBMC) from a cytomegalovirus (CMV)-positive donor were labeled with carboxyfluorescein succinimidyl ester (CFSE) and stimulated with CMV recall antigens at […]. The PBMC were then treated with one of three difference RARγ selective agonists or vehicle (DMSO) control and incubated at 37° C., 5% CO2 for four days. Culture supernatant was harvested and assayed for IFNγ production and the PBMC evaluated for proliferation by flow cytometry for CFSE dilution.
CFSE is a fluorescent reactive cell membrane permeable dye. After it is taken up, CFSE covalently modifies proteins and is retained in cells for long periods of time. The CFSE-modified proteins are generally evenly divided between daughter cells at each division so that fluorescent intensity of the cells falls by have at each division. Thus diminution of the dye's fluorescent signal can be used as a measure of proliferation.

TIL in JIMT-1 tumors = experiment: Flow cytometry of JIMT-1 tumors from NSG-B2M mice, Day 26; format: in vivo, human
Text: The mice were sacrificed on Day 26 of the study and the tumors collected and analyzed by flow cytometry. Statistical analysis was by ordinary one-way ANOVA with Tukey's test for significance comparison between groups. Gates were set to identify single cells by forward light scatter, live cells as single cells based on side scatter and staining with the vital stain Fixable Viability Dye eFluor™ 780, white blood cells from live cells based on side scatter and staining with anti-CD45, lymphocytes from white blood cells based on side and forward light scatter, and total T lymphocytes (tot T) from lymphocytes based on side scatter and staining with anti-CD3. Total T lymphocytes were divided into CD4^+ (TH) and CD8^+ (TC) lymphocytes based on staining with and anti-CD4 and CD8 antibodies and subsets assessed. The following observations were made on a per-mg of tumor tissue basis.

[1] = tested on: Lewis lung carcinoma (LLC) cells; experiment: Lewis lung carcinoma in vitro culture viability, Cell Titer Glo Assay; format: cell-based, mouse
Procedure: Lewis lung carcinoma (LLC) cells were cultured in vitro the presence of a multiple concentrations of the RARγ agonists GA1E, GA2E, and GA3Ep and viability assessed by the Cell Titer Glo Assay®.

LLC cells = experiment: LLC syngeneic model in C57BL/6 mice (Example 10); format: in vivo
Procedure: The LLC model is based on an epidermoid carcinoma of the lung that spontaneously arose in a C57BL/6 mouse some 70 years ago, Syngeneic models have been useful in predicting clinical benefit. C57BL/6 mice, 6-8 weeks old, were injected subcutaneously in the left flank with 0.1 mL containing 3×10^5 LLC cells. When tumors reached an average tumor volume of 50-150 mm^3, the mice were matched by tumor size and sorted into control and treatment groups, and dosing initiated (Day 0). Three groups of 10 mice each were established: vehicle control, 10 mg/kg GA2E, and 25 mg/kg GA2E. The mice received one oral dose per day for 13 days. Tumor volumes and weight were measured on days 0, 2, 4, 6, 9, 11, and 13. This study was ended on Day 13, as the average tumor volume was >1500 mm^3, and the tumors analyzed by flow cytometry. Two animals in the 10 mg/kg group and one animal in the 25 mg/kg group were terminated early due to ulceration of the tumor.

[2] = 10 mg/kg oral daily, end of study
[3] = per mg tumor, vs controls, P<0.0001
[4] = per mg tumor, vs controls, P<0.001
[5] = per mg tumor, vs controls, P<0.05
[6] = per mg tumor, vs controls, P<0.05, listed as GA2
[7] = per mg tumor, vs controls, P>0.05
[8] = 10 mg/kg oral daily for 13 days
[9] = 25 mg/kg oral daily for 13 days

SMILES: CC1(C)CCC(C)(C)c2cc(C(/C=C/c3ccc(C(=O)O)cc3F)=N/O)ccc21 [GA2E, 3-fluoro-4-((1E,3E)-3-(hydroxyimino)-3-(5,5,8,8-tetramethyl-5,6,7,8-tetrahydronaphthalen-2-yl)prop-1-en-1-yl)benzoic acid]
- T cells (anti-CD3) as mean percentage of the leukocytes in the tumor (TIL in EMT6 tumors; [2]): about 30%
- number of TIL (TIL in EMT6 tumors; [2]): increased
- proportion of CD8+ T cells that were memory cells (intracellular IFNγ) (TIL in EMT6 tumors; vs vehicle control, did not achieve statistical significance): numerically increased
- tolerability (EMT6 cells; 10 mg/kg oral daily for 17 days): acceptably well-tolerated
- mice terminated for excessive weight loss (EMT6 cells; 25 mg/kg group (n=10), oral daily): one mouse
- inhibiting tumor growth, 25 mg/kg dosage versus 10 mg/kg dosage (EMT6 cells; 25 mg/kg oral daily): somewhat more effective
- tolerability (EMT6 cells; 25 mg/kg oral daily for 17 days): acceptably well-tolerated
- weight loss (EMT6 cells; 25 mg/kg, only a short excursion): more than 10%
- mice terminated for excessive weight loss (EMT6 cells; 50 mg/kg oral daily (n=11)): terminated for excessive weight loss not later than Day 12
- tumor inhibition by the 50 mg/kg dosage versus the other dosages (EMT6 cells; 50 mg/kg, limited time in the study (to Day 12)): not clearly different
- IFNγ production (PBMC; 0.1 to 1000 nM): increased IFNγ production substantially
- Proliferation of CD8+ cells (CFSE dilution) (PBMC; increase small): increased
- proportion of tumor cells expressing PD-L1, CD18β, CD58 (LFA-3), and Her2 (TIL in JIMT-1 tumors; JIMT-1 tumor cells, flow cytometry): did not significantly alter
- concentration of T central memory CD8+ cells (CCR7+ CD45AR−) in tumor (TIL in JIMT-1 tumors; per mg tumor, vs controls): no significant change
- concentration of T effector memory CD8+ cells (CCR7− CD45AR−) in tumor (TIL in JIMT-1 tumors; per mg tumor, vs controls): no significant change
- concentration of naïve CD8+ cells (CCR7+ CD45AR+) in tumor (TIL in JIMT-1 tumors; per mg tumor, vs controls): no significant change
- concentration of CD8+ TIL expressing PD-1 (TIL in JIMT-1 tumors; [3]): increased
- concentration of terminally differentiated CD8+ T effector cells (CCR7− CD45AR+) (TIL in JIMT-1 tumors; [3]): substantial increase
- concentration of CD8+ TIL expressing CD18β (TIL in JIMT-1 tumors; [4]): increased
- concentration of total CD8+ lymphocytes in tumor (TIL in JIMT-1 tumors; [4]): increased
- concentration of CD8+ TIL expressing CD54 (TIL in JIMT-1 tumors; per mg tumor, vs controls, P<0.01): increased
- concentration of CD4+ TIL expressing CD18β (TIL in JIMT-1 tumors; [5]): increased
- concentration of CD4+ TIL expressing CD54 (TIL in JIMT-1 tumors; [5]): decreased
- concentration of CD4+ TIL expressing PD-1 (TIL in JIMT-1 tumors; [5]): decreased
- concentration of T central memory CD4+ cells (CCR7+ CD45AR−) (TIL in JIMT-1 tumors; [5]): decreased
- concentration of T effector memory CD4+ cells (CCR7− CD45AR−) (TIL in JIMT-1 tumors; [5]): decreased
- concentration of naïve CD4+ cells (CCR7+ CD45AR+) (TIL in JIMT-1 tumors; [5]): decreased
- concentration of total CD4+ lymphocytes in tumor (TIL in JIMT-1 tumors; [5]): decreased
- concentration of CD4+ TIL expressing CD54 (TIL in JIMT-1 tumors; [6]): increased
- concentration of CD4+ TIL expressing PD-1 (TIL in JIMT-1 tumors; [6]): increased
- concentration of CD4+ TIL expressing FoxP3 (TIL in JIMT-1 tumors; [7]): increased
- concentration of terminally differentiated CD4+ T effector cells (CCR7− CD45AR+) (TIL in JIMT-1 tumors; [7]): decreased
- effect on viability as concentrations exceeded 10 μM [1]: rapidly became toxic
- effect on viability at concentrations below 1 μM [1]: no effect
- IC50 ([1]; Mus musculus, Lewis lung carcinoma): 46 µM
- tolerability (LLC cells; [8]): well tolerated
- tumor growth (LLC cells; [8]): inhibited tumor growth
- weight loss over the course of the study (LLC cells; [8]): minimal weight loss
- tolerability (LLC cells; [9]): less well tolerated
- tumor growth (LLC cells; [9]): inhibited tumor growth
- weight loss (LLC cells; 25 mg/kg oral daily, by about Day 10): exceeding 10%
